EC50 data for two molecules are collected here from ChEMBL document CHEMBL3091374, “New synthetic enediynes and their conjugates may provide effective treatment for cancer” (ACS Med Chem Lett, 2013).

pEC50: −log10 of the molar value.

The test system of one experiment is NCI-H226. In words: Antiproliferative activity against human NCI-H226 cells assessed as ATP level after 72 hrs by CellTiter-Glo assay. Format: functional, cell-based. The settings on record: NCI-H226, 72 h. (In general: Cellular ATP, detected with luciferase, serves as a proxy for viable cell number.)
Experiment [1] is described as follows: Antiproliferative activity against human 786-O cells assessed as ATP level after 72 hrs by CellTiter-Glo assay. As to conditions: 786-0, 72 h. Format: functional, cell-based.

A word on the pEC50: it is −log10 of the EC50, conventionally taken in molar units. On to `C[C@@H](O)[C@@]12O[C@]13c1cc(O)c4c(c1N[C@H]2C#C/C=C\C#C[C@H]3O)C(=O)c1ccc(NCCN)cc1C4=O`, for which the values for the pEC50 (with NCI-H226; in experiment [1]) were 9.01 and 8.89, respectively.
For `C[C@@H](O)[C@@]12O[C@]13c1cc(O)c4c(c1N[C@H]2C#C/C=C\C#C[C@H]3O)C(=O)c1ccc(NC(=O)c2ccc(N)cc2)cc1C4=O`, the pEC50 in the experiment on NCI-H226 is 9.06; in experiment [1], 10.24.
